Measured values as given in ChEMBL document CHEMBL4477257, “In vitro cytotoxicity of novel 2,5,7-tricarbo-substituted indoles derived from 2-amino-5-bromo-3-iodoacetophenone” (2016).
Active and inactive are the calls of the source. No cut-off for these calls is given here.

Assays:
MCF7 [1] = assay: Cytotoxicity against human MCF7 cells assessed as reduction in cell viability after 2 days by MTT assay; format: functional; details: MCF7, 48 h, read-out: LC50 (the source's name)
HeLa [2] = assay: Cytotoxicity against human HeLa cells assessed as reduction in cell viability after 2 days by MTT assay; format: functional; details: 48 h, read-out: LC50 (the source's name)
MCF7 [3] = assay: Cytotoxicity against human MCF7 cells assessed as cell viability at 10 uM after 2 days by MTT assay relative to control; format: functional; details: MCF7, 48 h, read-out: Activity
MCF7 [4] = assay: Cytotoxicity against human MCF7 cells assessed as cell viability at 1 uM after 2 days by MTT assay relative to control; format: functional; details: MCF7, 48 h, read-out: Activity
MCF7 [5] = assay: Cytotoxicity against human MCF7 cells assessed as cell viability at 100 uM after 2 days by MTT assay relative to control; format: functional; details: MCF7, 48 h, read-out: Activity
MCF7 [6] = assay: Cytotoxicity against human MCF7 cells assessed as cell viability at 0.1 uM after 2 days by MTT assay relative to control; format: functional; details: MCF7, 48 h, read-out: Activity
HeLa [7] = assay: Cytotoxicity against human HeLa cells assessed as cell viability at 10 uM after 2 days by MTT assay relative to control; format: functional; details: 48 h, read-out: Activity
HeLa [8] = assay: Cytotoxicity against human HeLa cells assessed as cell viability at 1 uM after 2 days by MTT assay relative to control; format: functional; details: 48 h, read-out: Activity
HeLa [9] = assay: Cytotoxicity against human HeLa cells assessed as cell viability at 100 uM after 2 days by MTT assay relative to control; format: functional; details: 48 h, read-out: Activity
HeLa [10] = assay: Cytotoxicity against human HeLa cells assessed as cell viability at 0.1 uM after 2 days by MTT assay relative to control; format: functional; details: 48 h, read-out: Activity
HeLa [11] = assay: Induction of apoptosis in human HeLa cells assessed as necrotic cells at 10 uM after 48 hrs by Annexin V/propidium iodide staining based flow cytometric analysis (reference value: 21.45 +/- 0.78 %); format: functional
HeLa [12] = assay: Induction of apoptosis in human HeLa cells assessed as necrotic cells at 5 uM after 48 hrs by Annexin V/propidium iodide staining based flow cytometric analysis (reference value: 21.45 +/- 0.78 %); format: functional
HeLa [13] = assay: Induction of apoptosis in human HeLa cells assessed as necrotic cells at 2.5 uM after 48 hrs by Annexin V/propidium iodide staining based flow cytometric analysis (reference value: 21.45 +/- 0.78 %); format: functional
HeLa [14] = assay: Induction of apoptosis in human HeLa cells assessed as late apoptotic cells at 10 uM after 48 hrs by Annexin V/propidium iodide staining based flow cytometric analysis (reference value: 31.80 +/- 0.25 %); format: functional
HeLa [15] = assay: Induction of apoptosis in human HeLa cells assessed as late apoptotic cells at 5 uM after 48 hrs by Annexin V/propidium iodide staining based flow cytometric analysis (reference value: 31.80 +/- 0.25 %); format: functional
HeLa [16] = assay: Induction of apoptosis in human HeLa cells assessed as late apoptotic cells at 2.5 uM after 48 hrs by Annexin V/propidium iodide staining based flow cytometric analysis (reference value: 31.80 +/- 0.25 %); format: functional
HeLa [17] = assay: Induction of apoptosis in human HeLa cells assessed as viable cells at 10 uM after 48 hrs by Annexin V/propidium iodide staining based flow cytometric analysis (reference value: 46.00 +/- 0.56 %); format: functional; details: read-out: Activity
HeLa [18] = assay: Induction of apoptosis in human HeLa cells assessed as viable cells at 5 uM after 48 hrs by Annexin V/propidium iodide staining based flow cytometric analysis (reference value: 46.00 +/- 0.56 %); format: functional; details: read-out: Activity
HeLa [19] = assay: Induction of apoptosis in human HeLa cells assessed as viable cells at 2.5 uM after 48 hrs by Annexin V/propidium iodide staining based flow cytometric analysis (reference value: 46.00 +/- 0.56 %); format: functional; details: read-out: Activity
HeLa [20] = assay: Induction of apoptosis in human HeLa cells assessed as early apoptotic cells at 10 uM after 48 hrs by Annexin V/propidium iodide staining based flow cytometric analysis (reference value: 0.05 +/- 0.07 %); format: functional
HeLa [21] = assay: Induction of apoptosis in human HeLa cells assessed as early apoptotic cells at 5 uM after 48 hrs by Annexin V/propidium iodide staining based flow cytometric analysis (reference value: 0.05 +/- 0.07 %); format: functional
HeLa [22] = assay: Induction of apoptosis in human HeLa cells assessed as early apoptotic cells at 2.5 uM after 48 hrs by Annexin V/propidium iodide staining based flow cytometric analysis (reference value: 0.05 +/- 0.07 %); format: functional
HeLa [23] = assay: Induction of apoptosis in human HeLa cells assessed as DNA fragmentation at 2.5 to 10 uM after 48 hrs by ethidium bromide staining based agarose gel electrophoresis; format: functional, cell-based
HeLa [24] = assay: Induction of apoptosis in human HeLa cells assessed as caspase 3 activation at 2.5 to 10 uM after 24 hrs by colorimetric analysis; format: functional
HeLa [25] = assay: Induction of apoptosis in human HeLa cells after 48 hrs by Annexin V/propidium iodide staining based flow cytometric analysis; format: functional, cell-based

| SMILES | CC50 (MCF7 [1]) | CC50 (HeLa [2]) | viability at 10 µM (MCF7 [3]) | viability at 1 µM (MCF7 [4]) | viability at 100 µM (MCF7 [5]) | viability at 0.1 µM (MCF7 [6]) | viability at 10 µM (HeLa [7]) | viability at 1 µM (HeLa [8]) | viability at 100 µM (HeLa [9]) | viability at 0.1 µM (HeLa [10]) | other results |
| --- | --- | --- | --- | --- | --- | --- | --- | --- | --- | --- | --- |
| CC(=O)c1cc(/C=C/c2ccc(F)cc2)cc2cc(-c3ccccc3)[nH]c12 | 18.5 µM | 9.26 µM | 46.5% | 72.2% | 46.7% | 89.7% | 32.8% | 70% | 23.9% | 74.2% |  |
| CC(=O)c1cc(-c2ccccc2)cc2cc(-c3ccccc3)[nH]c12 | > 100 µM | > 100 µM | 96.2% | 98.6% | 65.8% | 99.3% | 60.9% | 65.8% | 51.4% | 72.3% |  |
| COc1ccc(-c2cc3cc(/C=C/c4ccc(F)cc4)cc(C(C)=O)c3[nH]2)cc1 | 83 µM | 8.77 µM | 76.5% | 97.3% | 47.6% | 97.2% | 25.8% | 67% | 18.9% | 90.5% |  |
| CC(=O)c1cc(/C=C/c2ccc(F)cc2)cc2cc(-c3ccc(F)cc3)[nH]c12 | > 100 µM | 5.68 µM | 67.4% | 82% | 42.2% | 98.8% | 41.9% | 53.7% | 20.3% | 72.6% | Activity (HeLa [11]): 64.1%; Activity (HeLa [12]): 20.4%; Activity (HeLa [13]): 14.35%; Activity (HeLa [14]): 13.4%; Activity (HeLa [15]): 44%; Activity (HeLa [16]): 33.5%; viability at 10 µM (HeLa [17]): 22.4%; viability at 5 µM (HeLa [18]): 35.5%; viability at 2.5 µM (HeLa [19]): 52.4%; Activity (HeLa [20]): 0.35%; Activity (HeLa [21]): 0.5%; Activity (HeLa [22]): 0.2%; Activity (HeLa [23]): Active; fold change (FC) (HeLa [24]): 3 |
| CC(=O)c1cc(-c2ccc(F)cc2)cc2cc(-c3ccc(F)cc3)[nH]c12 | 87.4 µM | 13.8 µM | 90.6% | 93.2% | 20% | 99.8% | 47.4% | 71.6% | 9.31% | 90% |  |
| CC(=O)c1cc(/C=C/c2ccccc2)cc2cc(-c3ccccc3)[nH]c12 | > 100 µM | 30.8 µM | 86.5% | 93.4% | 34.1% | 99.5% | 52.5% | 79.8% | 21.2% | 99% |  |
| COc1ccc(-c2cc(C(C)=O)c3[nH]c(-c4ccccc4)cc3c2)cc1 | 47.8 µM | 15.5 µM | 49.5% | 88.8% | 30.8% | 99.2% | 33.9% | 73.1% | 21.1% | 87.9% |  |
| CC(=O)c1cc(/C=C/c2ccccc2)cc2cc(-c3ccc(F)cc3)[nH]c12 | > 100 µM | 16.1 µM | 69.5% | 86.9% | 50.1% | 98.4% | 51.9% | 60.5% | 24.2% | 82.2% |  |
| COc1ccc(-c2cc3cc(-c4ccccc4)cc(C(C)=O)c3[nH]2)cc1 | > 100 µM | 18.9 µM | 64.5% | 78.1% | 43.5% | 87% | 51.6% | 61.5% | 32.8% | 80.5% |  |
| CC(=O)c1cc(-c2ccc(F)cc2)cc2cc(-c3ccccc3)[nH]c12 | > 100 µM | 38 µM | 73.8% | 82.7% | 36.4% | 98.3% | 55.7% | 82.7% | 24.8% | 90.3% |  |
| COc1ccc(-c2cc(C(C)=O)c3[nH]c(-c4ccc(F)cc4)cc3c2)cc1 | 16.8 µM | 9.46 µM | 52.9% | 69.7% | 14.8% | 88.4% | 46.5% | 56.1% | 20.6% | 74.5% |  |
| CC(=O)c1cc(-c2ccccc2)cc2cc(-c3ccc(F)cc3)[nH]c12 | > 100 µM | > 100 µM | 91.9% | 96.8% | 73.3% | 98.5% | 76.9% | 85.1% | 68.3% | 91.1% |  |
| COc1ccc(-c2cc3cc(-c4ccc(F)cc4)cc(C(C)=O)c3[nH]2)cc1 | > 100 µM | 42.8 µM | 77.5% | 96.4% | 47% | 97.3% | 52% | 62.9% | 46.5% | 81% |  |
| COc1ccc(-c2cc(C(C)=O)c3[nH]c(-c4ccc(OC)cc4)cc3c2)cc1 | 25.2 µM | 7.13 µM | 56.4% | 62.6% | 39.9% | 96.5% | 37.1% | 60.2% | 20.2% | 74.5% | Activity (HeLa [11]): 47.4%; Activity (HeLa [12]): 42.65%; Activity (HeLa [13]): 23.2%; Activity (HeLa [14]): 47.75%; Activity (HeLa [15]): 37.55%; Activity (HeLa [16]): 12.9%; viability at 10 µM (HeLa [17]): 3.7%; viability at 5 µM (HeLa [18]): 20.4%; viability at 2.5 µM (HeLa [19]): 65.2%; Activity (HeLa [20]): 0.15%; Activity (HeLa [21]): 0.15%; Activity (HeLa [22]): 0.1%; Activity (HeLa [23]): Active; fold change (FC) (HeLa [24]): 4; Activity (HeLa [25]): Dose-dependent effect |
